Patent US10329289B2, “6,7-dihydro-5H-pyrrolo[3,4-B]pyridin-5-one allosteric modulators of the M4 muscarinic acetylcholine receptor” (Merck Sharp & Dohme Corp., priority 2015, dated 2019)

These compounds were tested against T1, human M4 muscarinic acetylcholine receptor (Homo sapiens, UniProt P08173) (assay: human FLIPR-based M4 PAM assay (Ca2+ mobilization, CHO-K1 cells with human M4 receptor and Gαqi5)). Conditions: acetylcholine at 20% of maximum response, read-out: M4 PAM IP.
T1 construct: expressed in transfected cells; host or cells: CHO-K1
T1 sequence (P08173 1-479): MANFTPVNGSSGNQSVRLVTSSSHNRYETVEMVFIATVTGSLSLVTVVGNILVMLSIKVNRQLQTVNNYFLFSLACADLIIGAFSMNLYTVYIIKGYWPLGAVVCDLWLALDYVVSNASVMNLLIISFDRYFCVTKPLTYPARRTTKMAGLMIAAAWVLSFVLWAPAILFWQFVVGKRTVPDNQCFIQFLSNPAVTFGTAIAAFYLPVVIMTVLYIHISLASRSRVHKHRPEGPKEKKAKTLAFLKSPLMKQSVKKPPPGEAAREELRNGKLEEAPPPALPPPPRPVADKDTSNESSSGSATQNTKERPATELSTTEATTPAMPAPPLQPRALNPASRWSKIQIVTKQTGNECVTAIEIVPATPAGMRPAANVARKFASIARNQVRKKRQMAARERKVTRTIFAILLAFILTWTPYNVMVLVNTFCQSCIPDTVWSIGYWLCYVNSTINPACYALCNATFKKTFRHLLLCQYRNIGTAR
Type: cell-based
Method in brief: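 CHO-K1 cells stably expressing human M4 and chimeric Gαqi5 were dye-loaded ~1 h at 37 °C and read for Ca2+ fluorescence. Compound followed by acetylcholine at an EC20 (sometimes an EC70 third addition); inflection point from a 4-parameter logistic fit.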

Row | EC50 [µM] | Structure (SMILES)
1 | 0.057 | CCc1cc2c(nc1N1CCC(Oc3ccc4c(c3)C[C@@H](O)C4)CC1)CNC2=O [Example 166B, (S)-3-ethyl-2-(4-((2-hydroxy-2,3-dihydro-1H-inden-5-yl)oxy)piperidin-1-yl)-6,7-dihydro-5H-pyrrolo[3,4-b]pyridin-5-one]
2 | 0.117 | Cc1cc2c(nc1N1CCC(Oc3ccc(CO)nc3)CC1)CNC2=O [Example 155, 2-(4-((6-(hydroxymethyl)pyridin-3-yl)oxy)piperidin-1-yl)-3-methyl-6,7-dihydro-5H-pyrrolo[3,4-b]pyridin-5-one]
3 | 0.022 | COc1ccc(OC2CCN(c3nc4c(cc3C)C(=O)NC4=O)CC2)cn1 [Example 297, 2-(4-((6-Methoxypyridin-3-yl)oxy)piperidin-1-yl)-3-methyl-5H-pyrrolo[3,4-b]pyridine-5,7(6H)-dione]
4 | 0.734 | COc1ccc(O[C@H]2CCN(c3nc4c(cc3C)C(=O)NC4)C[C@@H]2C)cn1 (single isomer, unassigned) [Example 2B]
5 | 0.037 | Cc1cc2c(nc1N1CCC(OC[C@@]3(C)C[C@@H]3F)CC1)CNC2=O (single isomer, unassigned) [Example 160D]
6 | 0.061 | Cc1c(N2CCC(Oc3ccc4c(c3)COC4)CC2)nc2c(c1C)C(=O)NC2 [Example 328, 2-(4-((1,3-Dihydro-2-benzofuran-5-yl)oxy)piperidin-1-yl)-3,4-dimethyl-6,7-dihydro-5H-pyrrolo[3,4-b]pyridin-5-one]
7 | 0.052 | Cc1cc2c(nc1N1CCC(Oc3ccc4[nH]ncc4c3)CC1)C(C)N(C)C2=O (stereo not shown) [Example 14, 2-(4-((1H-indazol-5-yl)oxy)piperidin-1-yl)-3,6,7-trimethyl-6,7-dihydro-5H-pyrrolo[3,4-b]pyridin-5-one]
8 | 0.135 | COCCOc1ccc(O[C@H]2CCN(c3nc4c(cc3C)C(=O)NC4)C[C@H]2F)cn1 (stereo in doubt) [Example 61, 2-((3R,4S)-3-fluoro-4-((6-(2-methoxyethoxy)pyridin-3-yl)oxy)piperidin-1-yl)-3-methyl-6,7-dihydro-5H-pyrrolo[3,4-b]pyridin-5-one]
9 | 0.02 | Cc1c(N2CC[C@@H](Oc3ccc4c(c3)COCC4)[C@@H](F)C2)nc2c(c1C)C(=O)NC2 [Example 194A, 2-((3S,4R)-3-fluoro-4-(isochroman-7-yloxy)piperidin-1-yl)-3,4-dimethyl-6,7-dihydro-5H-pyrrolo[3,4-b]pyridin-5-one]
10 | 0.084 | Cc1cncc(OC2CCN(c3nc4c(cc3C)C(=O)NC4)CC2)c1 [Example 66, 3-Methyl-2-(4-((5-methylpyridin-3-yl)oxy)piperidin-1-yl)-6,7-dihydro-5H-pyrrolo[3,4-b]pyridin-5-one]
11 | 0.094 | COc1cc(OC2CCN(c3nc4c(cc3C)C(=O)NC4)CC2)ccn1 [Example 90, 2-(4-((2-methoxypyridin-4-yl)oxy)piperidin-1-yl)-3-methyl-6,7-dihydro-5H-pyrrolo[3,4-b]pyridin-5-one]
12 | 0.026 | CCOc1ccc(OC2CCN(c3nc4c(cc3C)C(=O)NC4)CC2)cn1 [Example 34, 2-(4-((6-ethoxypyridin-3-yl)oxy)piperidin-1-yl)-3-methyl-6,7-dihydro-5H-pyrrolo[3,4-b]pyridin-5-one]
13 | 0.06 | Cc1cc2c(nc1N1CCC(Oc3ccc(N)nc3)CC1)CNC2=O [Example 104, 2-(4-((6-aminopyridin-3-yl)oxy)piperidin-1-yl)-3-methyl-6,7-dihydro-5H-pyrrolo[3,4-b]pyridin-5-one]
14 | 0.109 | COCCOc1ccc(OC2CCN(c3nc4c(c(C)c3C)C(=O)NC4)CC2)cn1 [Example 220, 2-(4-((6-(2-methoxyethoxy)pyridin-3-yl)oxy)piperidin-1-yl)-3,4-dimethyl-6,7-dihydro-5H-pyrrolo[3,4-b]pyridin-5-one]
15 | 0.102 | CCc1cc2c(nc1N1CCC(Oc3ccc4c(c3)COCC4)CC1)CN(CCO)C2=O [Example 267A, 3-ethyl-6-(2-hydroxyethyl)-2-(4-(isochroman-7-yloxy)piperidin-1-yl)-6,7-dihydro-5H-pyrrolo[3,4-b]pyridin-5-one]
16 | 1.22 | Cc1cc2c(nc1N1CCC(Oc3cncc(CO)c3)CC1)CNC2=O [Example 156, 2-(4-((5-(hydroxymethyl)pyridin-3-yl)oxy)piperidin-1-yl)-3-methyl-6,7-dihydro-5H-pyrrolo[3,4-b]pyridin-5-one]
17 | 0.049 | Cc1cc2c(nc1N1CCC(Oc3ccc(F)cc3)CC1)CN(C)C2=O [Example 253, 2-(4-(4-fluorophenoxy)piperidin-1-yl)-3,6-dimethyl-6,7-dihydro-5H-pyrrolo[3,4-b]pyridin-5-one]

Row | EC50 [µM] | Structure (SMILES)
18 | 0.149 | Cc1ccc(OC2CCN(c3nc4c(cc3C)C(=O)NC4)CC2)cc1C [Example 119, 2-(4-(3,4-dimethylphenoxy)piper-idin-1-yl)-3-methyl-6,7-dihydro-5H-pyrrolo[3,4-b]pyridin-5-one]
19 | 0.109 | CO[C@@H]1Cc2ccc(OC3CCN(c4nc5c(c(C)c4C)C(=O)N(CCO)C5)CC3)cc2C1 [Example 267C, (R)-6-(2-hydroxyethyl)-2-(4-((2-methoxy-2,3-dihydro-1H-inden-5-yl)oxy)piperidin-1-yl)-3,4-dimethyl-6,7-dihydro-5H-pyrrolo[3,4-b]pyridin-5-one]
20 | 0.017 | Cc1cc2c(nc1N1CC[C@@H](Oc3ccc4c(c3)COC4)[C@@H](F)C1)CNC2=O [Example 40, 2-((3S,4R)-4-((1,3-dihydro-2-benzofuran-5-yl)oxy)-3-fluoropiperidin-1-yl)-3-methyl-6,7-dihydro-5H-pyrrolo[3,4-b]pyridin-5-one]
21 | 0.02 | Cc1cc2c(nc1N1CCC(Oc3ccc4c(c3)COCC4)CC1)CNC2=O [Example 112, 2-(4-(isochroman-7-yloxy)piperidin-1-yl)-3-methyl-6,7-dihydro-5H-pyrrolo[3,4-b]pyridin-5-one]
22 | 0.473 | Cc1cc2c(nc1N1CCC(Oc3ccc4nccn4c3)CC1)CNC2=O [Example 182A, 2-(4-(imidazo[1,2-a]pyridin-6-yloxy)piperidin-1-yl)-3-methyl-6,7-dihydro-5H-pyrrolo[3,4-b]pyridin-5-one]
23 | 0.026 | CCc1cc2c(nc1N1CCC(Oc3ccc4c(c3)OCC4)CC1)[C@@H](CO)N(C)C2=O [Example 365, (S)-2-(4-((2,3-dihydrobenzofuran-6-yl)oxy)piperidin-1-yl)-3-ethyl-7-(hydroxymethyl)-6-methyl-6,7-dihydro-5H-pyrrolo[3,4-b]pyridin-5-one]
24 | 0.018 | Cc1cc2c(nc1N1CCC(Oc3ccc4c(c3)OCC4)CC1)CNC2=O [Example 198, 2-(4-((2,3-dihydrobenzofuran-6-yl)oxy)piperidin-1-yl)-3-methyl-6,7-dihydro-5H-pyrrolo[3,4-b]pyridin-5-one]
25 | 0.032 | CCN1Cc2nc(N3CC[C@@H](Oc4ccccc4)[C@@H](F)C3)c(C)cc2C1=O [Example 244, 6-ethyl-2-((3S,4R)-3-fluoro-4-phenoxypiperidin-1-yl)-3-methyl-6,7-dihydro-5H-pyrrolo[3,4-b]pyridin-5-one]
26 | 0.819 | COc1ccc(OC2CCN(c3nc4c(c(CO)c3C)C(=O)NC4)CC2)cn1 [Example 302, 4-(hydroxymethyl)-2-(4-((6-methoxypyridin-3-yl)oxy)piperidin-1-yl)-3-methyl-6,7-dihydro-5H-pyrrolo[3,4-b]pyridin-5-one]
27 | 0.045 | Cc1cc2c(nc1N1CCC(Oc3ccc4c(c3)CCCO4)CC1)CNC2=O [Example 116, 2-(4-(chroman-6-yloxy)piperidin-1-yl)-3-methyl-6,7-dihydro-5H-pyrrolo[3,4-b]pyridin-5-one]
28 | 0.044 | Cc1c(N2CCC(Oc3ccc4c(c3)OCC4)CC2)nc2c(c1C)C(=O)N(CCO)C2 [Example 266A, 2-(4-((2,3-dihydrobenzofuran-6-yl)oxy)piperidin-1-yl)-6-(2-hydroxyethyl)-3,4-dimethyl-6,7-dihydro-5H-pyrrolo[3,4-b]pyridin-5-one]
29 | 8.76 | CCOCCOC1CCN(c2nc3c(cc2C)C(=O)NC3)CC1 [Example 54, 2-(4-(2-ethoxyethoxy)piper-idin-1-yl)-3-methyl-6,7-dihydro-5H-pyrrolo[3,4-b]pyridin-5-one]
30 | 0.088 | Cc1cc2c(nc1N1CC[C@@H](Oc3ccccc3)[C@@H](F)C1)CN(C(C)C)C2=O [Example 248, 2-((3S,4R)-3-fluoro-4-phenoxypiperidin-1-yl)-6-isopropyl-3-methyl-6,7-dihydro-5H-pyrrolo[3,4-b]pyridin-5-one]
31 | 0.063 | COc1ccc(O[C@@H]2CCN(c3nc4c(cc3C)C(=O)NC4)C[C@@H]2C)cn1 [Example 29A, 2-((3S,4R)-4-((6-methoxypyridin-3-yl)oxy)-3-methylpiperidin-1-yl)-3-methyl-6,7-dihydro-5H-pyrrolo[3,4-b]pyridin-5-one]
32 | 0.036 | Cc1cc2c(nc1N1CCC(Oc3ccc(F)cc3)CC1)CN(CCO)C2=O [Example 264, 2-(4-(4-Fluorophenoxy)piperidin-1-yl)-6-(2-hydroxyethyl)-3-methyl-6,7-dihydro-5H-pyrrolo[3,4-b]pyridin-5-one]
33 | 0.286 | COc1ccc(OC2CCN(c3nc4c(cc3C)C(=O)NC43CC3)CC2)cn1 [Example 300]
34 | 0.051 | Cc1nc2ccc(O[C@@H]3CCN(c4nc5c(cc4C)C(=O)NC5)C[C@@H]3F)cc2o1 [Example 162, 2-((3S,4R)-3-fluoro-4-((2-methylbenzo[d]oxazol-6-yl)oxy)piperidin-1-yl)-3-methyl-6,7-dihydro-5H-pyrrolo[3,4-b]pyridin-5-one]
